According to ChEMBL document CHEMBL1142718, “Novel indolylindazolylmaleimides as inhibitors of protein kinase C-beta: synthesis, biological activity, and cardiovascular safety” (J Med Chem, 2005):

What was measured:
[1] = target: Protein kinase C alpha type (Homo sapiens, UniProt P17252); test: Inhibition of human Protein kinase C alpha using [gamma-33P]-ATP
[2] = target: T1, Protein kinase C beta type (Homo sapiens, UniProt P05771); test: Inhibition of human Protein kinase C beta 1 using [gamma-33P]-ATP
[3] = target: T1, Protein kinase C beta type; test: Inhibition of human Protein kinase C beta 2 using [gamma-33P]-ATP
[4] = target: Voltage-gated inwardly rectifying potassium channel KCNH2 (Homo sapiens, UniProt Q12809)
Sequence of Voltage-gated inwardly rectifying potassium channel KCNH2 (Q12809 whole entry): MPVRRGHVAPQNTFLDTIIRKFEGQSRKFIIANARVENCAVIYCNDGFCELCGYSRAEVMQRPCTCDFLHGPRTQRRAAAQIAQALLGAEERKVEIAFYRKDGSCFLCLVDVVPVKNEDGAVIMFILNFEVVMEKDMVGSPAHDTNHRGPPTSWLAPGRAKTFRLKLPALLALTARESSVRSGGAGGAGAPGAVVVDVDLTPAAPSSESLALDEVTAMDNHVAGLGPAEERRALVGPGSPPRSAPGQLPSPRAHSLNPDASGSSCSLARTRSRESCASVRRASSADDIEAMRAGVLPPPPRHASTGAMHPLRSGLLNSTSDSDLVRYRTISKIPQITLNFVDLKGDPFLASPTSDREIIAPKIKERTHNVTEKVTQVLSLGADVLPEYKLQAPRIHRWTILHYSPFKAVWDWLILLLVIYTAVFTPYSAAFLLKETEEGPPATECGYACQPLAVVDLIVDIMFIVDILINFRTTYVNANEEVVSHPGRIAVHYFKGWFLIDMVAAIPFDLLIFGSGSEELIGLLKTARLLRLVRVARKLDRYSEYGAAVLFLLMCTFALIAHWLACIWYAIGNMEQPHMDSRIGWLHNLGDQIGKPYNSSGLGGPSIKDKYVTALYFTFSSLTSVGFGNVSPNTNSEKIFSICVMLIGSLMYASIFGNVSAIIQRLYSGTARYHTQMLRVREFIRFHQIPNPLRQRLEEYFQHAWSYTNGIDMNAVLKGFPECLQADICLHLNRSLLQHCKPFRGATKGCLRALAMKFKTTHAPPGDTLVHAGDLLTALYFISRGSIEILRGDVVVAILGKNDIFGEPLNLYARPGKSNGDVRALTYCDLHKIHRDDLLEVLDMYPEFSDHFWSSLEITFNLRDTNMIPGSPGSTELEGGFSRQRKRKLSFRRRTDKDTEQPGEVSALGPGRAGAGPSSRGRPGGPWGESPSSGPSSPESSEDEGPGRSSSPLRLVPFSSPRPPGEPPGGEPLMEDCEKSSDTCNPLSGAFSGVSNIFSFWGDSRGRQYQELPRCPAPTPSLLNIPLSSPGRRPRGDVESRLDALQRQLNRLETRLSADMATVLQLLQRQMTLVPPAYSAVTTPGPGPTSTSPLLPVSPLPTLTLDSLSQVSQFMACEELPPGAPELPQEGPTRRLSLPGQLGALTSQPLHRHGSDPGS
Description: Inhibition of [3H]astemizole binding to Potassium channel HERG

[5] = target: Protein kinase C gamma type (Homo sapiens, UniProt P05129); test: Inhibition of human Protein kinase C gamma using [gamma-33P]-ATP
[6] = target: T1, Protein kinase C beta type; test: Inhibition of IL-8 release by HEK293 cells expressing PKC-beta2; assay type: functional, cell-based
[7] = target: Cyclin-dependent kinase 1 (Mus musculus, UniProt P11440); test: Inhibition of Cyclin-dependent kinase 1 in P19 cells; assay type: cell-based
Sequence of Cyclin-dependent kinase 1 (P11440 whole entry): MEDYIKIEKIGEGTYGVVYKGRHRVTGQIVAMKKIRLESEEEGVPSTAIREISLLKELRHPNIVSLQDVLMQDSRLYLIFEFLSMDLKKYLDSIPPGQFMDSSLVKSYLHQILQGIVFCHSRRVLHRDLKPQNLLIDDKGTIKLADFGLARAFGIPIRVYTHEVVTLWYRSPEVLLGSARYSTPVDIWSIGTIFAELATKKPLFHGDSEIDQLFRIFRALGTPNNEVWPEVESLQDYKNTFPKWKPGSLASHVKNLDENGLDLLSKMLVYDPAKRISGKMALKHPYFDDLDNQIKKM

[8] = target: Epidermal growth factor receptor (Mus musculus, UniProt Q01279); test: Inhibition of Epidermal growth factor receptor in P19 cells; assay type: cell-based
Sequence of Epidermal growth factor receptor (Q01279 whole entry): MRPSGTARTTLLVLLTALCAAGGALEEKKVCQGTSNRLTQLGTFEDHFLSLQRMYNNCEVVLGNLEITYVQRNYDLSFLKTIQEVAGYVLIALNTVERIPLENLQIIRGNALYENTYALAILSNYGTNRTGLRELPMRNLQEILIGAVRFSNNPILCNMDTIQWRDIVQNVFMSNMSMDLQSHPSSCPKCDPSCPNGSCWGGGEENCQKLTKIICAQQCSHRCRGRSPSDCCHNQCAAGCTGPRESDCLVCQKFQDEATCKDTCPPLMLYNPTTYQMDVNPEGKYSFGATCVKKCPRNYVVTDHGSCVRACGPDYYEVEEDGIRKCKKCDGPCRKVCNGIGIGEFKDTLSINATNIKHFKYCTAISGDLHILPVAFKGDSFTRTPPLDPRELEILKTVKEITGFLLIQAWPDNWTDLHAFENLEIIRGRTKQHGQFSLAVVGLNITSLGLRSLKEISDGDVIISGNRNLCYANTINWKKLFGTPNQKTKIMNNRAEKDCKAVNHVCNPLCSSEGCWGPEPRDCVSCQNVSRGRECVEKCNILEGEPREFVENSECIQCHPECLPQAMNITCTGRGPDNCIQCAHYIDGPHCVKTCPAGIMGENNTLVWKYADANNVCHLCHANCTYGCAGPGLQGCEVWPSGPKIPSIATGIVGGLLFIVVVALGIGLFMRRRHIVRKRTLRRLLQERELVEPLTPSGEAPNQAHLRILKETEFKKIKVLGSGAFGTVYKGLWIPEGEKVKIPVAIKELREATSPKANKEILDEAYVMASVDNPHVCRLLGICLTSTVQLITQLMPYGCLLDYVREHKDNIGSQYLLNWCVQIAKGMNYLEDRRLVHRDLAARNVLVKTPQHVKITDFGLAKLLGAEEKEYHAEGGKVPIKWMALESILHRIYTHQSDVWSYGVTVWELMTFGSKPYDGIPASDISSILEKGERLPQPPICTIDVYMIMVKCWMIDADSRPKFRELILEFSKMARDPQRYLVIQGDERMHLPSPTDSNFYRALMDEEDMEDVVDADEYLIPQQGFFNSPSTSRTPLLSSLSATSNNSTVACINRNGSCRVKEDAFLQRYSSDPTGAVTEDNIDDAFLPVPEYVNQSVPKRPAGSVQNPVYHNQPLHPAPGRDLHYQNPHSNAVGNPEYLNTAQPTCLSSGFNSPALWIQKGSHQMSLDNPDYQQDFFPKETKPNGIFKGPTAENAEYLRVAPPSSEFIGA

[9] = target: Platelet-derived growth factor receptor (Mus musculus, UniProt P05622+P26618); test: Inhibition of Platelet-derived growth factor receptor in P19 cells; assay type: cell-based
Insulin receptor = Insulin receptor (Mus musculus, UniProt P15208); test: Inhibition of Insulin receptor kinase in P19 cells; assay type: cell-based
Sequence of Insulin receptor (P15208 28-748 limits assumed): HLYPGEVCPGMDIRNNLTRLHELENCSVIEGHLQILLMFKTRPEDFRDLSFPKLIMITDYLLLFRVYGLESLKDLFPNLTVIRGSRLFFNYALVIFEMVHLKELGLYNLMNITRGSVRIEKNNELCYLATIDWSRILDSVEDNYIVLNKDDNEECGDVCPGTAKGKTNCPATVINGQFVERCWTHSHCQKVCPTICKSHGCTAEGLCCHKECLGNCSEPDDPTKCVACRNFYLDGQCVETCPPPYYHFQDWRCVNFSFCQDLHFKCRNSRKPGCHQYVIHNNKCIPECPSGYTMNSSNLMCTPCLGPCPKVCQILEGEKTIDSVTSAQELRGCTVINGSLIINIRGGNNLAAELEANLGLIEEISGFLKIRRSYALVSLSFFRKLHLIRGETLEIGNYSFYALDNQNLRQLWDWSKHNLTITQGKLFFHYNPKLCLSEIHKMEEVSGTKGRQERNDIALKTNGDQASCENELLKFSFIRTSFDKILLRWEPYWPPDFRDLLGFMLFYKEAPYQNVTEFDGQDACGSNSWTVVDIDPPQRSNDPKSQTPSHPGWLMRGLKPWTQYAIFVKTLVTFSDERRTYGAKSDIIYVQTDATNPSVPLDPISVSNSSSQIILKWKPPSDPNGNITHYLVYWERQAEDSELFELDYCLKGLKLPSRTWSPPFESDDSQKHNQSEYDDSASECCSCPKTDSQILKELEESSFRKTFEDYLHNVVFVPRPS
Sequence of Insulin receptor (P15208 753-1372 limits assumed): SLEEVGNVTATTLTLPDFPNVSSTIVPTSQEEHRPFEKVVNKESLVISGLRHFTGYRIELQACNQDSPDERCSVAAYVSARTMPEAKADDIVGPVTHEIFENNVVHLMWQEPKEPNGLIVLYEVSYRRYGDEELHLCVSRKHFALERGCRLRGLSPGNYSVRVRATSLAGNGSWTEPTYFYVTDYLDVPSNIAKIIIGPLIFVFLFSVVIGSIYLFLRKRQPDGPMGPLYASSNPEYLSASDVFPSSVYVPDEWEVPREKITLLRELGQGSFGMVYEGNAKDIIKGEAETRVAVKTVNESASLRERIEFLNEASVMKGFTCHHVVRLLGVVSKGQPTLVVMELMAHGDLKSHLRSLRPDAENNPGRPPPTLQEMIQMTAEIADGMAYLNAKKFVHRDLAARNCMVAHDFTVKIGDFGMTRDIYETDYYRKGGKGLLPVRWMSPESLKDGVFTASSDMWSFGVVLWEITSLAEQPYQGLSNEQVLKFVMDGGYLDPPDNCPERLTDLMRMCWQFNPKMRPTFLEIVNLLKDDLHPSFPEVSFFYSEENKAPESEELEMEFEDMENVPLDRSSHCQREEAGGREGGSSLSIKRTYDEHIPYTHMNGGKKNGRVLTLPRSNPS

[10] = target: T2, Protein kinase C zeta type (Homo sapiens, UniProt Q05513); test: Inhibition of Protein kinase C zeta
T2 sequence (Q05513 whole entry): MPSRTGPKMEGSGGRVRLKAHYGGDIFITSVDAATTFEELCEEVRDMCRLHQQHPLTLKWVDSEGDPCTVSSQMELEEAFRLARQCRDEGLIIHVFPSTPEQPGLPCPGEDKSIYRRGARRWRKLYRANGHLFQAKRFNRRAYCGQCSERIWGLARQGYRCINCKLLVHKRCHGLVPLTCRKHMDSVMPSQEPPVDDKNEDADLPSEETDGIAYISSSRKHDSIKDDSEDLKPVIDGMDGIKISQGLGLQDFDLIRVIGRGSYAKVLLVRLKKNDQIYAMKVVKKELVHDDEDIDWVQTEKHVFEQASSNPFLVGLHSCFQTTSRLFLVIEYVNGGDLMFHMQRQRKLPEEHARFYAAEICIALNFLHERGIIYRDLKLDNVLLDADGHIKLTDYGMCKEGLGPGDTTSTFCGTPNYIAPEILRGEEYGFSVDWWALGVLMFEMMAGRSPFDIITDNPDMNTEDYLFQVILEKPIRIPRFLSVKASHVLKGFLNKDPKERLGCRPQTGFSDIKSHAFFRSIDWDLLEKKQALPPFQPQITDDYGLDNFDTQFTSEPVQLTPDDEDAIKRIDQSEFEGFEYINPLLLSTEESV

[11] = Inhibition of Calcium/calmodulin-dependent protein kinase type II in P19 cells; assay type: cell-based, Mus musculus
[12] = Inhibition of Protein Kinase A in P19 cells; assay type: cell-based, Mus musculus
[13] = target: Mitogen-activated protein kinase 1 (Mus musculus, UniProt P63085); assay type: cell-based, P19
Sequence of Mitogen-activated protein kinase 1 (P63085 whole entry): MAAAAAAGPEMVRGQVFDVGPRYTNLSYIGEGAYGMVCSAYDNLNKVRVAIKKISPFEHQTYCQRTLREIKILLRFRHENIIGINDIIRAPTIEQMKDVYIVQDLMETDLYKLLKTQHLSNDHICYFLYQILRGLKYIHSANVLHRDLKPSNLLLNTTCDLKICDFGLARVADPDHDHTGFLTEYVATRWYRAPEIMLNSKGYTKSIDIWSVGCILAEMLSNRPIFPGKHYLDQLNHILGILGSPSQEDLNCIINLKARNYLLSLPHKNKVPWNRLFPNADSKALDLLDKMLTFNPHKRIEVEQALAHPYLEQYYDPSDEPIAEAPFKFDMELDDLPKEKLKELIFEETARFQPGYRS
Description: Inhibition of Mitogen-activated protein kinase/extracellular signal-regulated kinase 2 in P19 cells

[14] = Inhibition of Vascular endothelial growth factor receptor in P19 cells; assay type: cell-based, Mus musculus
[15] = Inhibition of Casein kinase 1 in P19 cells; assay type: cell-based, Mus musculus
[16] = Inhibition of Protein kinase C epsilon
Casein kinase 2 = Casein kinase 2 (Mus musculus, UniProt Q60737+P67871+O54833+Q8CH19); test: Inhibition of Casein kinase 2 of P19 cells; assay type: cell-based
[17] = target: Protein kinase C delta type (Homo sapiens, UniProt Q05655); test: Inhibition of Protein kinase C delta
[18] = target: T3, Protein kinase C zeta type (Homo sapiens) (UniProt Q05513); test: Inhibition of Protein kinase C zeta at 10 uM
T3 sequence (whole entry): T2 sequence (Q05513 whole entry)

| SMILES | IC50 [1] [nM] | IC50 [2] [nM] | IC50 [3] [nM] | Ki [4] [nM] | IC50 [5] [nM] | IC50 [6] [nM] | IC50 [7] [nM] | IC50 [8] [nM] | IC50 [9] [nM] | IC50 (Insulin receptor) [nM] | IC50 [10] [nM] | IC50 [11] [nM] | IC50 [12] [nM] | IC50 [13] [nM] | IC50 [14] [nM] | IC50 [15] [nM] | IC50 [16] [nM] | IC50 (Casein kinase 2) [nM] | IC50 [17] [nM] | inhibition [18] [%] |
| --- | --- | --- | --- | --- | --- | --- | --- | --- | --- | --- | --- | --- | --- | --- | --- | --- | --- | --- | --- | --- |
| CN1CCN(CCCn2nc(C3=C(c4cn(-c5ccc6ccccc6c5)c5ccccc45)C(=O)NC3=O)c3ccccc32)CC1 | 320 | 62 | 92 | 290 |  |  |  |  |  |  |  |  |  |  |  |  |  |  |  |  |
| CN(C)CCCn1nc(C2=C(c3cn(-c4ccccc4)c4ccccc34)C(=O)NC2=O)c2ccccc21 | 150 | 46 | 13 |  | 370 |  |  |  |  |  |  |  |  |  |  |  |  |  |  |  |
| O=C1NC(=O)C(c2nn(CCCN3CCCC3)c3ccccc23)=C1c1cn(-c2ccc3ccccc3c2)c2ccccc12 |  | 120 |  | 11 |  | 170 |  |  |  |  |  |  |  |  |  |  |  |  |  |  |
| CN(C)CCCn1nc(C2=C(c3cn(-c4csc5ccccc45)c4ccccc34)C(=O)NC2=O)c2ccccc21 |  | 86 |  |  |  | 630 | > 10000 | > 10000 | > 10000 | > 10000 | > 10000 | 5600 | > 10000 | > 10000 | > 10000 | > 10000 | 3100 | > 10000 | 1500 |  |
| O=C1NC(=O)C(c2nn(CCCN3CCOCC3)c3ccccc23)=C1c1cn(-c2ccc3ccccc3c2)c2ccccc12 |  | 190 |  | 850 |  | 72 |  |  |  |  |  |  |  |  |  |  |  |  |  |  |
| O=C1NC(=O)C(c2cn(-c3cccnc3)c3ccccc23)=C1c1[nH]nc2ccccc12 | 1000 | 460 | 220 |  |  |  |  |  |  |  |  |  |  |  |  |  |  |  |  |  |
| CN(C)CCCn1nc(C2=C(c3cn(-c4ccc5ccccc5c4)c4ccccc34)C(=O)NC2=O)c2ccccc21 |  | 33 |  |  | 110 | 24 | 1300 | > 10000 | 5900 | > 10000 | 6200 | 6100 | > 10000 | > 10000 | 1000 | > 10000 | 330 | > 10000 | 490 |  |
| CN(C)CCCn1nc(C2=C(c3cn(-c4cnc5ccccc5c4)c4ccccc34)C(=O)NC2=O)c2ccccc21 |  | 7 |  |  |  | 20 | 1600 | > 10000 | 5900 | > 10000 | 5700 | > 10000 | > 10000 | > 10000 | > 10000 | > 10000 | 140 | > 10000 | 31 |  |
| CN[C@@H]1C[C@H]2O[C@@](C)([C@@H]1OC)n1c3ccccc3c3c4c(c5c6ccccc6n2c5c31)C(=O)NC4 [STAUROSPORINE] |  |  |  |  |  |  | 8 |  | 2 |  |  | 6 | 4 |  | 14 | 1400 |  | > 10000 |  |  |
| CN(C)CCCn1nc(C2=C(c3cn(-c4cccs4)c4ccccc34)C(=O)NC2=O)c2ccccc21 | 220 | 15 | 10 |  | 280 | 75 |  | > 10000 | 2200 | > 10000 |  | 7000 | 6200 | > 10000 | 5000 | > 10000 | 140 | > 10000 | 86 | 57 |
| CN(C)CCCn1nc(C2=C(c3cn(-c4cncc5ccccc45)c4ccccc34)C(=O)NC2=O)c2ccccc21 |  | 92 |  |  | 250 | 86 |  |  |  |  |  |  |  |  |  |  |  |  |  |  |
| CN(C)CCCn1nc(C2=C(c3cn(-c4cccnc4)c4ccccc34)C(=O)NC2=O)c2ccccc21 | 120 | 19 |  |  | 210 | 82 | 310 | > 10000 | 5200 | > 10000 | 4400 | 3800 | > 10000 | > 10000 | 3700 | > 10000 | 330 | > 10000 | 250 |  |
| CN(C)CCCn1nc(C2=C(c3cn(-c4cccc5ccccc45)c4ccccc34)C(=O)NC2=O)c2ccccc21 | 1200 | 87 |  |  | 3400 | 600 | 1900 | > 10000 | > 10000 | > 10000 | > 10000 | > 10000 | > 10000 | > 10000 | 6900 | > 10000 | 4200 | > 10000 | 2200 |  |
